What was measured:
multiple sclerosis (MS) = settings: part intravenously, part per os; Hartstein and Ulett 1957; cited from earlier work
[1] = test system: rat model with Alzheimer disease; settings: Salkovic-Petrisic et al. 2014; cited from earlier work
[2] = test system: open-angle acute primary glaucoma; assay: Clinical Case Report 2; assay type: in vivo, patient; settings: ophthalmic treatment for IOP, after 4 months of treatment

Compound | symptoms of the disease (multiple sclerosis (MS)) | effect of the oral treatment (learning capacity and memory) [1] | field of vision and acuity [2]
O=C[C@H](O)[C@@H](O)[C@@H](O)[C@H](O)CO [D-galactose] | improved the symptoms of the disease | beneficial effect | –
CC(C)NCC(O)COc1ccc(CCOCC2CC2)cc1 (stereo not drawn) [beta-toxolol, betaxolol] | – | – | not improved

Source: patent publication EP3243509A1, “OROBUCCAL ABSORPTION COMPOSITION FOR NEURO-PROTECTION” (priority 2016, dated 2017)
